Columns and labels:
FOXO response elements = test: Stimulation of the expression of proteins regulated by FOXO: luciferase reporter under FOXO response elements; assay type: cell-based, human; details: 0.5 mg/mL, 24 hours; carrier (0.05% DMSO) = 100
Procedure: The activation capacity of the FOXO response elements was evaluated in a human epithelial cell line stably transfected with the luciferase gene under the control of a regulatory sequence which contains different FOXO response elements which are in the promoters of the FOXO target genes. The activation capacity of the FOXO response elements indicates the expression of proteins regulated by FOXO. 30,000 cells per well were seeded in a total volume of 100 μL of RPMI 1640 culture medium. After 24 hours the cells with RPMI 1640 culture medium were washed and were incubated with the compounds of the invention at 0.5 mg/mL for 24 hours in a total volume of 100 μL per well. The carrier in which the compounds of the invention were dissolved was used (0.05% DMSO) as a negative control.
The measurement of the activity of the promoter was carried out using the Steady-Go Luciferase Assay System kit following the manufacturer's instructions. The luminescence values (RLU/sec) caused by the reaction between luciferase and the substrate were quantified with a luminometer and normalized by the cell number (absorbance at 630 nm), and the activity of the promoter was determined, which was standardized with regard to the negative control values.
(§1) Each experiment was carried out three times in 3 independent experiments.

[1] = test system: HEKa primary keratinocytes; test: Host cell reactivation (HCR) assay, activation of DNA repair in primary keratinocytes; assay type: cell-based, human; details: 24 hours, basal = 100
Procedure: The host cell reactivation (HCR) assay was used in HEKa primary keratinocytes to evaluate the capacity of the peptides of the invention to repair the damage to the DNA in a biologically functional way. 40,000 cells per well were seeded and they were co-transfected with a control plasmid which constitutively expresses the Firefly luciferase gene (pGL3), previously damaged by UVC, and with an undamaged plasmid which constitutively expresses the Renilla luciferase gene (vector pRluc-N1(h)).
Subsequently the cells were incubated with the compounds of the invention at 0.025 mg/mL and 0.5 mg/mL in EpiLife medium for 24 hours, after which the luminescence due to the activity of the Firefly and Renilla luciferases was measured using the Dual-Go Luciferase Assay System kit following the manufacturer's instructions. The carrier in which the compounds of the invention (EpiLife medium) were dissolved was used as a negative control. The activation percentage of the DNA repair for each sample was calculated standardizing the luminescence values of the Firefly luciferase with regard to the Renilla luciferase, subsequently standardizing with regard to the values of the negative control.
as §1

Substance	Stimulation Average (%) of the activation of the FOXO response factors (FOXO response elements)	Activation Average (%) of DNA repair, HCR assay ([1]; 0.025 mg/mL)	Activation Average (%) of DNA repair, HCR assay ([1]; 0.5 mg/mL)
Ac-L-Tyr-L-Asn-L-Pro-L-His-L-Gln-L-Val-NH2 (Ac-YNPHQV-NH2) [Ac-SEQ ID NO: 18-NH2]	148%		
Ac-L-Tyr-L-Glu-L-Ser-L-Lys-L-Gln-L-Val-NH2 (Ac-YESKQV-NH2) [Ac-SEQ ID NO: 24-NH2]	133%	295%	271%
Ac-L-Tyr-L-Tyr-L-Ser-L-His-L-Gln-L-Val-NH2 (Ac-YYSHQV-NH2) [Ac-SEQ ID NO: 20-NH2]	157%		
Ac-L-Tyr-L-Glu-L-Pro-L-His-L-Gln-L-Val-NH2 (Ac-YEPHQV-NH2) [Ac-SEQ ID NO: 40-NH2]	131%		
Ac-L-Tyr-L-His-L-Ser-L-His-L-Gln-L-Val-NH2 (Ac-YHSHQV-NH2) [Ac-SEQ ID NO: 30-NH2]	138%		
Ac-L-Tyr-L-Tyr-L-Pro-L-Lys-L-Gln-L-Val-NH2 (Ac-YYPKQV-NH2) [Ac-SEQ ID NO: 42-NH2]	133%		
Ac-L-Tyr-L-Asn-L-Ser-L-Lys-L-Gln-L-Val-NH2 (Ac-YNSKQV-NH2) [Ac-SEQ ID NO: 27-NH2]	128%		
Ac-L-Tyr-L-Asn-L-Lys-L-Lys-L-Gln-L-Val-NH2 (Ac-YNKKQV-NH2) [Ac-SEQ ID NO: 8-NH2]	106%		
Ac-L-Tyr-L-Glu-L-Ser-Gly-L-Gln-L-Val-NH2 (Ac-YESGQV-NH2) [Ac-SEQ ID NO: 16-NH2]	119%		
Ac-L-Tyr-L-Asn-L-Ser-L-His-L-Gln-L-Val-NH2 (Ac-YNSHQV-NH2) [Ac-SEQ ID NO: 41-NH2]	129%		
Ac-L-Tyr-L-Tyr-L-Pro-L-His-L-Gln-L-Val-NH2 (Ac-YYPHQV-NH2) [Ac-SEQ ID NO: 29-NH2]	120%		
Ac-L-Tyr-L-Tyr-L-Lys-L-Leu-L-Gln-L-Val-NH2 (Ac-YYKLQV-NH2) [Ac-SEQ ID NO: 23-NH2]	174%		
Ac-L-Tyr-L-His-L-Lys-L-Leu-L-Gln-L-Val-NH2 (Ac-YHKLQV-NH2) [Ac-SEQ ID NO: 25-NH2]	168%		
Ac-L-Tyr-L-His-L-Ser-L-Lys-L-Gln-L-Val-NH2 (Ac-YHSKQV-NH2) [Ac-SEQ ID NO: 26-NH2]	124%		
Ac-L-Tyr-L-Asn-L-Lys-Gly-L-Gln-L-Val-NH2 (Ac-YNKGQV-NH2) [Ac-SEQ ID NO: 1-NH2]	143%	150%	290%
Ac-L-Tyr-L-Asn-L-Lys-L-Leu-L-Gln-L-Val-NH2 (Ac-YNKLQV-NH2) [Ac-SEQ ID NO: 21-NH2]	157%	231%	357%
Ac-L-Tyr-L-Glu-L-Ser-L-His-L-Gln-L-Val-NH2 (Ac-YESHQV-NH2) [Ac-SEQ ID NO: 19-NH2]	145%	191%	304%
Ac-L-Tyr-L-His-L-Pro-L-His-L-Gln-L-Val-NH2 (Ac-YHPHQV-NH2) [Ac-SEQ ID NO: 28-NH2]	125%		
